Measurements as given in patent US8809270B2, “Method for reducing cardiovascular morbidity and mortality in prediaetic patients and patients with type 2 diabetes” (priority 2003, dated 2014).

How the values were obtained:
[1] = system: type 2 diabetic population inadequately treated with oral drugs; experiment: Treat-to-Target study (HOE901/4002): lipid data; format: in vivo, human; design: Triglycerides % reduction from baseline / Triglycerides % reduction from baseline, LANTUS-AMARYL / Non-HDL Cholesterol Total % reduction from baseline / Non-HDL Cholesterol Total % reduction from baseline, LANTUS-AMARYL: concentration or dose not given beside the values; Triglycerides Baseline / Triglycerides Endpoint: unit not given beside the values; conditions: for Non-HDL Cholesterol Total % reduction from baseline, LANTUS-AMARYL / Non-HDL Cholesterol Total change at endpoint, LANTUS-AMARYL / Triglycerides % reduction from baseline, LANTUS-AMARYL / Triglycerides change at endpoint, LANTUS-AMARYL: LANTUS (4002 Study) minus AMARYL (two AMARYL studies)
From the text: As a consequence of the excellent glycemic control attained, which set the standard for glycemic control in future trials, the 4002 study results are especially useful as an assessment of Lantus's LANTUS (insulin glargine) effects on lipids.

[2] = Post-marketing surveillance safety database; design: species or system human
From the text: Treatment with Lantus® LANTUS (insulin glargine) insulin offers the possibility of a smooth, daylong, blood insulin profile without a definite peak that can be finely titrated to lower subjects' FPG in a durable manner, while minimizing the risk of hypoglycemia at other times of day.

For insulin glargine [LANTUS], which “HDL Baseline” value ([1]; TG baseline range 200-500) is on record?
Its value is 42.

And the “HDL Endpoint” value ([1]; TG baseline range 200-500)?
Its value is 41.

And the “Non-HDL Cholesterol Total % reduction from baseline” value ([1]; TG baseline range 200-500)?
The value was 7%.

And the “Non-HDL Cholesterol Total Baseline” value ([1]; TG baseline range 200-500)?
The value was 167.

What about the “Non-HDL Cholesterol Total Endpoint” value ([1]; TG baseline range 200-500) of the same substance?
Its value is 155.

What about the “Triglycerides % reduction from baseline” value ([1]; TG baseline range 200-500) of the same substance?
Its value is 25%.

And the “Triglycerides Baseline” value ([1]; TG baseline range 200-500)?
The value was 288.

What about the “Triglycerides Endpoint” value ([1]; TG baseline range 200-500) of the same substance?
The value was 232.

And the “Non-HDL Cholesterol Total % reduction from baseline, LANTUS-AMARYL” value ([1]; TG baseline range 200-500)?
Its value is 4%.

And the “Non-HDL Cholesterol Total change at endpoint, LANTUS-AMARYL” value (shortened to “Non-HDL Cholesterol Total change”) ([1]; TG baseline range 200-500)?
The value was 5.8.

And the “Triglycerides % reduction from baseline, LANTUS-AMARYL” value ([1]; TG baseline range 200-500)?
The value was 13%.

And the “Triglycerides change at endpoint, LANTUS-AMARYL” value (“Triglycerides change at endpoint” below) ([1]; TG baseline range 200-500)?
The value was 21.7.

And the “HDL Baseline” value ([1]; TG baseline range 300-500)?
Its value is 40.

And the “HDL Endpoint” value ([1]; TG baseline range 300-500)?
The value was 40.

And the “Non-HDL Cholesterol Total % reduction from baseline” value ([1]; TG baseline range 300-500)?
The value was 15%.

And the “Non-HDL Cholesterol Total Baseline” value ([1]; TG baseline range 300-500)?
The value was 180.

What about the “Non-HDL Cholesterol Total Endpoint” value ([1]; TG baseline range 300-500) of the same substance?
The value was 152.

And the “Triglycerides % reduction from baseline” value ([1]; TG baseline range 300-500)?
The value was 34%.

And the “Triglycerides Baseline” value ([1]; TG baseline range 300-500)?
The value was 362.

What about the “Triglycerides Endpoint” value ([1]; TG baseline range 300-500) of the same substance?
Its value is 240.

And the “Non-HDL Cholesterol Total % reduction from baseline, LANTUS-AMARYL” value ([1]; TG baseline range 300-500)?
Its value is 12%.

And the “Non-HDL Cholesterol Total change” value ([1]; TG baseline range 300-500)?
Its value is 21.9.

And the “Triglycerides % reduction from baseline, LANTUS-AMARYL” value ([1]; TG baseline range 300-500)?
Its value is 16%.

And the “Triglycerides change at endpoint” value ([1]; TG baseline range 300-500)?
Its value is 52.5.

And the “HDL Baseline” value ([1]; TG baseline range 300-1000)?
Its value is 37.

What about the “HDL Endpoint” value ([1]; TG baseline range 300-1000) of the same substance?
Its value is 38.

And the “Non-HDL Cholesterol Total % reduction from baseline” value ([1]; TG baseline range 300-1000)?
Its value is 10%.

What about the “Non-HDL Cholesterol Total Baseline” value ([1]; TG baseline range 300-1000) of the same substance?
Its value is 181.

What about the “Non-HDL Cholesterol Total Endpoint” value ([1]; TG baseline range 300-1000) of the same substance?
The value was 163.

And the “Triglycerides % reduction from baseline” value ([1]; TG baseline range 300-1000)?
The value was 36%.

What about the “Triglycerides Baseline” value ([1]; TG baseline range 300-1000) of the same substance?
The value was 470.

And the “Triglycerides Endpoint” value ([1]; TG baseline range 300-1000)?
Its value is 301.

What about the “Non-HDL Cholesterol Total % reduction from baseline, LANTUS-AMARYL” value ([1]; TG baseline range 300-1000) of the same substance?
Its value is 5%.

What about the “Non-HDL Cholesterol Total change” value ([1]; TG baseline range 300-1000) of the same substance?
Its value is 8.6.

What about the “Triglycerides % reduction from baseline, LANTUS-AMARYL” value ([1]; TG baseline range 300-1000) of the same substance?
Its value is 13%.

What about the “Triglycerides change at endpoint” value ([1]; TG baseline range 300-1000) of the same substance?
The value was 63.6.

What about the “HDL Baseline” value ([1]; TG baseline range 500-1000) of the same substance?
Its value is 33.

And the “HDL Endpoint” value ([1]; TG baseline range 500-1000)?
The value was 36.

And the “Non-HDL Cholesterol Total % reduction from baseline” value ([1]; TG baseline range 500-1000)?
The value was 8%.

What about the “Non-HDL Cholesterol Total Baseline” value ([1]; TG baseline range 500-1000) of the same substance?
The value was 186.

And the “Non-HDL Cholesterol Total Endpoint” value ([1]; TG baseline range 500-1000)?
The value was 171.

And the “Triglycerides % reduction from baseline” value ([1]; TG baseline range 500-1000)?
Its value is 38%.

What about the “Triglycerides Baseline” value ([1]; TG baseline range 500-1000) of the same substance?
The value was 661.

What about the “Triglycerides Endpoint” value ([1]; TG baseline range 500-1000) of the same substance?
Its value is 409.

What about the “Non-HDL Cholesterol Total % reduction from baseline, LANTUS-AMARYL” value ([1]; TG baseline range 500-1000) of the same substance?
The value was −2%.

What about the “Non-HDL Cholesterol Total change” value ([1]; TG baseline range 500-1000) of the same substance?
Its value is −9.0.

What about the “Triglycerides % reduction from baseline, LANTUS-AMARYL” value ([1]; TG baseline range 500-1000) of the same substance?
The value was 5%.

What about the “Triglycerides change at endpoint” value ([1]; TG baseline range 500-1000) of the same substance?
Its value is 34.4.

And the “LDL Baseline” value ([1]; TG baseline range All)?
Its value is 113.

What about the “LDL Endpoint” value ([1]; TG baseline range All) of the same substance?
Its value is 110.

What about the “reduction in fasting TG levels” value ([1]; all patients) of the same substance?
Its value is 24%.

What about the “reduction in fasting TG levels” value ([1]; elevations of 500 mg/dL or more) of the same substance?
The value was 38%.

And the “reduction in fasting TG levels” value ([1]; fasting TG in the 300-499 mg/dL range)?
Its value is 34%.

What about the “incidence of hypoglycemia or unexpected adverse reactions compared to other marketed insulin preparations” value [2] of the same substance?
The value was “no increased incidence of hypoglycemia or unexpected adverse reactions”.
